Source: patent USRE38723E1, “Haloalkyl derivatives of reporter molecules used to analyze metabolic activity in cells” (Molecular Probes, Inc., priority 1991, dated 2005)
Values belong to the compound of their own block, whether it stands above or below them.

Columns and labels:
[1] = tested on: CRE-BAG2 cells expressing β-galactosidase; experiment: Cellular retention of coumarin galactopyranoside substrates (Example 17); type: cell-based; conditions: 10 μM, hypotonic shock loading, 37° C., excitation 360±20 nm, emission >400 nm
Protocol: CRE-BAG2 cells are prepared as described in Example 15.
Staining solutions of 4-methylcoumarin β-D-galactopyranoside, 4-chloromethylcoumarin β-D-galactopyranoside and 4-trifluoromethylcoumarin β-D-galactopyranoside, respectively, are prepared that are 10 μM in concentration. Each galactopyranoside substrate is loaded into CRE-BAG2 cells expressing β-galactosidase using brief hypotonic shock for less than five minutes. Cells are then washed free of extracellular substrate and incubated for three hours in fresh culture medium at 37° C. Each cell sample is then illuminated at 360±20 nm, and the fluorescence is observed at >400 nm. Fluorescence intensity data is acquired using a cooled CCD camera and subsequently stored in digital format.

[2] = tested on: Glutathione Transferase from Equine Liver; experiment: Glutathione transferase activity in vitro (Example 14); type: biochemical; conditions: room temperature, with GSH
Protocol: Activity of glutathione transferase in vitro can be assayed essentially by the method of Grants and Matsumura (INSECT PHYSIOL. 18 (6), 615 (1988)). • 1) Reagents: The stock reagents required are: 1) 5-Chloromethylfluorescein (CMF) substrate (Example 1) 10 mg/mL in DMF, diluted 1:10 in reaction buffer to 1 mg/mL; 2). Reaction buffer 100 mM potassium phosphate, 15% glycerol pH 6.8; 3). Glutathione (GSH) 155 mM in 20 mM TRIS, 2 mM DTT, 15% glycerol pH 7.8; 4). Glutathione Transferase from Equine Liver (Sigma #G 6511) 1.0 mg/mL in reaction buffer. • 2) Assay. The reaction mixture consists of 0.7 mL reaction buffer, 0.1 mL GSH, 0.1 mL substrate and 0.1 mL enzyme. The background is measured and subtracted by using 0.1 mL of the reaction buffer instead of the enzyme. Enzymatic activity can be detected at less than 5 minutes at room temperature. Product formation can be detected by separation of the polar product from the less polar substrate by a suitable means such as thin layer chromatography or high performance liquid chromatography. For instance, product accumulation can be detected by thin layer chromatography using A) 15:85 methanol:chloroform or B) 2:5:15 NH4OH:isopropyl alcohol:methanol. […] Alternatively the fluorescence of the product is determined using a fluorometer versus a fluorescein standard with excitation at 492 and emission measured at 515 nm. […]

[3] = tested on: lacZ positive CRE BAG 2 cells; experiment: Staining of living lacZ positive cells with galactosidase substrate (Example 11); type: cell-based
Protocol: (§1) NIH/3T3 cells (lacZ negative) and CRE BAG 2 cells (3T3 cells transformed with a retrovirus containing lacZ gene) are employed for cellular assays. Both cell lines can be obtained from American Type Culture Collection Co., Rockville, Md. The cells are grown in a humidified atmosphere of 5% CO2 in Dulbecco's modified Eagle's medium supplemented with 10% calf serum, 50 μg/mL gentamicin, 300 μg/mL L-glutamine and 10 mM HEPES pH 7.4.
(§2) 4-Chloromethylumbelliferyl β-D-galactoside (Cl-MUG) (Example 3) is dissolved in DMSO to get a 10 mM stock solution. A 10 mM stock solution of 4-methylumbelliferyl β-D-galactoside (MUG) (Molecular Probes) is also made in DMSO as a control. The stock solutions are kept sealed in brown reagent bottles and stored at −20° C.
(§3) 100 μL of stock solution is added to 10 mL of fresh culture medium to prepare a “working medium” containing 100 μM Cl-MUG. This medium is filter-sterilized by passing through an Acrodisc™ filter (0.45 μm pore size). A working medium containing MUG is prepared in the same way.
(§4) Cells grown on coverslips are transferred to the working medium and incubated at 37° C. under normal conditions. Cells are examined at the desired time for their fluorescence under a Zeiss microscope equipped with a Hoechst filter set (EX […]/EM 480 nm). […] After 6 hours continuous incubation, the fluorescence intensity of stained CRE BAG 2 cells reaches its highest level.

[4] = tested on: NIH/3T3 cells (lacZ negative); experiment: Staining of living lacZ negative cells with galactosidase substrate (Example 11); type: cell-based; conditions: 100 μM in working medium, 60 minutes at 37° C., washed with fresh medium
Protocol: as §1, §2, §3, §4

[5] = tested on: NIH/3T3 cells and CRE BAG 2 cells; experiment: Cytotoxicity of substrate in working medium (Example 11); type: cell-based
Protocol: as §1, §3
Fluorescence can be detected in the cells for at least 24 hours following washing of the cells with fresh medium.

[6] = tested on: lacZ positive cells; experiment: Dye retention after paraformaldehyde fixation (Example 11); type: cell-based; conditions: 3.7% paraformaldehyde fixation, Hoechst filter set
Protocol: The cells grown on coverslips and incubated with either Cl-MUG or MUG are immersed in 3.7% paraformaldehyde in 80 mM Pipes buffer, pH 6.5 for 4 minutes to allow the paraformaldehyde to penetrate the cells. The cells are then transferred to 3.7% paraformaldehyde in PBS. After 6 minutes, the cells are washed three times with PBS buffer for ten minutes. The coverslips are put on the slides and sealed.
The fixed cells are examined for their fluorescence under a Zeiss microscope equipped with a Hoechst filter set.

[7] = tested on: lacZ positive CRE BAG 2 cells; experiment: Cellular retention after loading by hypoosmotic shock (Example 12); type: cell-based; conditions: after incubation for 4 hours, 2 mM
Protocol: 5-Chloromethylfluorescein di-β-D-galactoside (CMFDG) (Example 1) is dissolved in DMSO to get 20 mM stock solution. A 40 mM stock solution offluorescein di-β-D-galaetoside (FDG) (Molecular Probes) is also made in DMSO as a control. The stock solutions are kept sealed in brown reagent bottles and stored at −20° C.
• (A) FCS-PBS Solution: Phosphate buffered saline (GIBCO), 4% fetal calf serum, 10 mM HEPES, pH 7.2 • (B) Staining Solution: CMFDG: 200 μL of stock solution is diluted with distilled water to 4 mL to get a 1 mM staining solution. FDG: 400 μL of stock solution is diluted to 4 mL with distilled water to get a 4 mM staining solution. 4. Staining and Examination of Cells:
Cells grown on coverslips are transferred to a Petri dish containing 3 mL of FCS-PBS solution and then incubated at 37° C. for 10 minutes. 3 mL of prewarmed (37° C.) 1 mM CMFDG staining solution is added to give a final dye concentration of 0.5 mM The solutions are mixed rapidly. The cells are incubated at 37° C. for exactly one minute. To stop the loading, the cells are transferred to a 1.8 mL of ice-cold FCS-PBS solution. FDG is loaded into cells by using the same procedure except that the final dye concentrations is 2 mM. Cells are then incubated under normal culture conditions to examine the dye retention. Cells are examined without washing at the desired time for their fluorescence under a Zeiss microscope equipped with a FITC filter set (EX 485 nm/EM 530 nm).

[8] = tested on: NIH/3T3 cells; experiment: Cellular retention of rhodamine 110 peptidase substrates (Example 16); type: cell-based; conditions: 25 μM; for leakage of enzyme reaction product after staining: 30 minutes at 37° C.; for fluorescence after washing and several hours in fresh media: fluorescein long-pass filter set
Protocol: NIH/3T3 cells are prepared as described in Example 15.
Staining solutions of bis-(L-leucine)-rhodamine 110 and L-leucine-rhodamine 110-p-chloromethylbenzamide (Example 9), respectively, are prepared that are 25 μM in concentration. Equivalent NIH/3T3 cells are incubated with the same amount of peptidase substrate for thirty (30) minutes at 37° C. in Modified Tyrode's buffered saline (135 mM NaCl, 5 mM KCl, 1 mM MgCl2, 1.8 mM CaCl2, 10 mM NaHEPES, 5.6 mM glucose, pH 7.5, plus 0.1% bovine serum albumin).
The cells are washed and placed in fresh media for several hours.

[9] = 100 μM working medium for 24 hours

SMILES: O=c1cc(C(F)(F)F)c2ccc(O[C@@H]3O[C@H](CO)[C@H](O)[C@H](O)[C@H]3O)cc2o1 [4-trifluoromethylcoumarin β-D-galactopyranoside]
- fluorescence intensity after three hours in fresh culture medium [1]: low fluorescent intensity

- time at which enzymatic activity can be detected [2]: less than 5 minutes
SMILES: O=C1OC2(c3ccc(O)cc3Oc3cc(O)ccc32)c2ccc(CCl)cc21 [CMF, 5-chloromethylfluorescein]

SMILES: O=c1cc(CCl)c2ccc(O[C@@H]3O[C@H](CO)[C@H](O)[C@H](O)[C@H]3O)cc2o1 [Cl-MUG, 7-(β-D-galactopyranosyloxy)-4-chloromethylcoumarin]
- fluorescence intensity after three hours in fresh culture medium [1]: brightly fluorescent
- fluorescence of cells under microscope ([3]; 100 μM in working medium, 60 minutes at 37° C., washed with fresh medium): fluorescence is observed in the cytoplasmic area
- continuous incubation time at which fluorescence intensity reaches its highest level ([3]; 100 μM working medium): 6 h
- fluorescence of cells under microscope [4]: not in 3T3 cells
- cell morphology [5, 9]: morphologically normal
- population doubling time versus cells in substrate-free medium [5, 9]: same population doubling time
- time fluorescence can be detected in the cells following washing with fresh medium ([5]; after incubation in working medium): at least 24 hours
- cytotoxicity ([5]; either type of cell): no cytotoxicity
- subculture after preincubation ([5]; preincubated in working medium for 6 hours, subcultured in fresh medium): second generation of cells that is normal
- fluorescence of fixed cells [6]: still brightly fluorescent

SMILES: O=C1OC2(c3ccc(O[C@@H]4O[C@H](CO)[C@H](O)[C@H](O)[C@H]4O)cc3Oc3cc(O[C@@H]4O[C@H](CO)[C@H](O)[C@H](O)[C@H]4O)ccc32)c2ccccc21 [FDG, fluorescein di-β-D-galaetoside, reference compound]
- fluorescence of stained cells after 4 hours [7]: very dim with high background fluorescence in the medium

- melting point: 275 °C (dec.)
SMILES: CC(C)CC(N)C(=O)Nc1ccc2c(c1)Oc1cc(NC(=O)c3ccc(CCl)cc3)ccc1C21OC(=O)c2ccccc21 [L-leucine-rhodamine 110-p-chloromethylbenzamide]
- leakage of enzyme reaction product after staining [8]: significantly less leakage
- fluorescence after washing and several hours in fresh media [8]: bright, well-defined staining pattern

SMILES: Cc1cc(=O)oc2cc(O[C@@H]3O[C@H](CO)[C@H](O)[C@H](O)[C@H]3O)ccc12 [MUG, 4-methylumbelliferyl β-D-galactoside, reference compound]
- fluorescence intensity after three hours in fresh culture medium [1]: low fluorescent intensity
- fluorescence of fixed cells [6]: barely fluorescent

SMILES: CC(C)CC(N)C(=O)Nc1ccc2c(c1)Oc1cc(NC(=O)C(N)CC(C)C)ccc1C21OC(=O)c2ccccc21 [bis-(L-leucine)-rhodamine 110, reference compound]
- leakage of enzyme reaction product after staining [8]: substantial leakage
- fluorescence after washing and several hours in fresh media [8]: no fluorescent signal
